Where “and” joins values, the source holds several entries; their conditions need not be identical. Identical values can stand only once. Like-named read-outs stand apart in the source and are kept apart here. Positions of bridges follow the written chain, without caps; N, C: chain ends. Non-standard residues stand in square brackets, D forms with d. Residues, ends and D or L forms follow the SMILES beside them. *: point of attachment. Acetyl(1-adamantyl) = O=C(CC12CC3CC(CC(C3)C1)C2)*; Dab = NCC[C@H](N)C(=O)O
System: P. aeruginosa PAO1
Design: MICDrug / MICDrug in combo / MIC of adjuvant in combo: unit not given beside the values
Method: The potential of the dilipid polymyxins to serve as an adjuvant in combination with other antibiotics was evaluated against P. aeruginosa PAO1 strain (Tables 4 and 7-12). […] Checkerboard assays were performed with the dilipid polymyxins in combination with twenty-one clinically-used antibiotics. The panel included representatives from the β-lactam, carbapenem, tetracycline, aminoglycoside and fluoroquinolone antibiotic families. Other agents that are used to treat Gram-negative bacterial infection such as fosfomycin, trimethoprim and chloramphenicol were also included. […] Fractional inhibitory concentration (FIC) index was calculated for each combination to measure potential synergism between the two agents. FIC was obtained by dividing the MIC of antibiotic/adjuvant in combination by the MIC of antibiotic/adjuvant alone, while FIC index was calculated by the summation of FIC indices for the antibiotic and adjuvant. An FIC index of ≤0.5, 0.5<x≤4, or >4 denotes for synergistic, additive or antagonistic interaction, respectively. Initially, we assessed the adjuvant properties of PMBN against the panel of 21 antibiotics.
The assay was performed on 96-well plates as previously described. Briefly, the antibiotic at study was 2-fold serially diluted along the x-axis, while the adjuvant was 2-fold serially diluted along the y-axis to create a matrix in which each well consists of a combination of both at different concentrations. Overnight grown bacterial cultures were diluted in saline to 0.5 McFarland turbidity, followed by 1:50 dilution in MHB and inoculation on each well to a final concentration of approximately 5×10^5 colony forming units/mL. Wells containing only MHB with or without bacterial cells were used as positive or negative control, respectively. […] The fractional inhibitory concentration (FIC) of the antibiotic was calculated via dividing the MIC of antibiotic in the presence of adjuvant by the MIC of antibiotic alone. Similarly, the FIC of adjuvant was calculated via dividing the MIC of adjuvant in the presence of antibiotic by the MIC of adjuvant alone. The FIC index was obtained by the summation of both FIC values. The FIC index was then interpreted as synergistic, additive, or antagonistic for values of ≤0.5, 0.5<x<4, or ≥4, respectively.

## CC(C)C[C@@H]1NC(=O)[C@@H](Cc2ccccc2)NC(=O)[C@H](CCN)NC(=O)[C@@H](NC(=O)[C@H](CCN)NC(=O)[C@@H](NC(=O)[C@H](CCNC(=O)CC23CC4CC(CC(C4)C2)C3)NC(=O)CC23CC4CC(CC(C4)C2)C3)[C@@H](C)O)CCNC(=O)[C@H]([C@@H](C)O)NC(=O)[C@H](CCN)NC(=O)[C@H](CCN)NC1=O [Compound 4, Diadamantane Acetic Acid (Di-Adamantyl) Polymyxin] ({Acetyl(1-adamantyl)}-[Dab](Acetyl(1-adamantyl))T[Dab][Dab][Dab][dF]L[Dab][Dab]T; lactam 4-C)
Adjuvant alone, one value per checkerboard, in µg/mL
  MIC of adjuvant alone (MIC1, MIC2, MIC3, MIC4, MIC5, MICPMBN): 16 and 8
Combination with Aztreonam
  Interpretation: Additive (An FIC index of ≤0.5, 0.5<x≤4, or >4 denotes for synergistic, additive or antagonistic interaction, respectively)
Combination with Ceftazidime
  Interpretation: Additive (An FIC index of ≤0.5, 0.5<x≤4, or >4 denotes for synergistic, additive or antagonistic interaction, respectively)
Combination with Chloramphenicol
  Interpretation: Additive (An FIC index of ≤0.5, 0.5<x≤4, or >4 denotes for synergistic, additive or antagonistic interaction, respectively)
Combination with Ciprofloxacin
  Interpretation: Additive (An FIC index of ≤0.5, 0.5<x≤4, or >4 denotes for synergistic, additive or antagonistic interaction, respectively)
Combination with Clindamycin
  Interpretation: Additive (An FIC index of ≤0.5, 0.5<x≤4, or >4 denotes for synergistic, additive or antagonistic interaction, respectively)
Combination with Doripenem
  Interpretation: Additive (An FIC index of ≤0.5, 0.5<x≤4, or >4 denotes for synergistic, additive or antagonistic interaction, respectively)
Combination with Doxycycline
  Interpretation: Additive (An FIC index of ≤0.5, 0.5<x≤4, or >4 denotes for synergistic, additive or antagonistic interaction, respectively)
Combination with Fosfomycin
  Interpretation: Additive (An FIC index of ≤0.5, 0.5<x≤4, or >4 denotes for synergistic, additive or antagonistic interaction, respectively)
Combination with Gentamicin
  Interpretation: Additive (An FIC index of ≤0.5, 0.5<x≤4, or >4 denotes for synergistic, additive or antagonistic interaction, respectively)
Combination with Linezolid
  Interpretation: Additive (An FIC index of ≤0.5, 0.5<x≤4, or >4 denotes for synergistic, additive or antagonistic interaction, respectively)
Combination with Meropenem
  Interpretation: Additive (An FIC index of ≤0.5, 0.5<x≤4, or >4 denotes for synergistic, additive or antagonistic interaction, respectively)
Combination with Minocycline
  Interpretation: Additive (An FIC index of ≤0.5, 0.5<x≤4, or >4 denotes for synergistic, additive or antagonistic interaction, respectively)
Combination with Moxifloxacin
  Interpretation: Additive (An FIC index of ≤0.5, 0.5<x≤4, or >4 denotes for synergistic, additive or antagonistic interaction, respectively)
Combination with Novobiocin
  Interpretation: Additive (An FIC index of ≤0.5, 0.5<x≤4, or >4 denotes for synergistic, additive or antagonistic interaction, respectively)
Combination with Piperacillin
  Interpretation: Additive (An FIC index of ≤0.5, 0.5<x≤4, or >4 denotes for synergistic, additive or antagonistic interaction, respectively)
Combination with Pleuromutilin
  Interpretation: Additive (An FIC index of ≤0.5, 0.5<x≤4, or >4 denotes for synergistic, additive or antagonistic interaction, respectively)
Combination with Rifampicin
  Interpretation: Additive (An FIC index of ≤0.5, 0.5<x≤4, or >4 denotes for synergistic, additive or antagonistic interaction, respectively)
Combination with Streptomycin
  Interpretation: Additive (An FIC index of ≤0.5, 0.5<x≤4, or >4 denotes for synergistic, additive or antagonistic interaction, respectively)
Combination with Tobramycin
  Interpretation: Additive (An FIC index of ≤0.5, 0.5<x≤4, or >4 denotes for synergistic, additive or antagonistic interaction, respectively)
Combination with Trimethoprim
  Interpretation: Additive (An FIC index of ≤0.5, 0.5<x≤4, or >4 denotes for synergistic, additive or antagonistic interaction, respectively)
Combination with Vancomycin
  Interpretation: Additive (An FIC index of ≤0.5, 0.5<x≤4, or >4 denotes for synergistic, additive or antagonistic interaction, respectively)
In combination with Aztreonam
  MIC of adjuvant in combo: (8)
In combination with Ceftazidime
  MIC of adjuvant in combo: (8)
In combination with Chloramphenicol
  MIC of adjuvant in combo: (4)
In combination with Ciprofloxacin
  MIC of adjuvant in combo: (0.25)
In combination with Clindamycin
  MIC of adjuvant in combo: (4)
In combination with Doripenem
  MIC of adjuvant in combo: (8)
In combination with Doxycycline
  MIC of adjuvant in combo: (4)
In combination with Fosfomycin
  MIC of adjuvant in combo: (4)
In combination with Gentamicin
  MIC of adjuvant in combo: (0.25)
In combination with Linezolid
  MIC of adjuvant in combo: (8)
In combination with Meropenem
  MIC of adjuvant in combo: (4)
In combination with Minocycline
  MIC of adjuvant in combo: (4)
In combination with Moxifloxacin
  MIC of adjuvant in combo: (4)
In combination with Novobiocin
  MIC of adjuvant in combo: (4)
In combination with Piperacillin
  MIC of adjuvant in combo: (0.25)
In combination with Pleuromutilin
  MIC of adjuvant in combo: (4)
In combination with Rifampicin
  MIC of adjuvant in combo: (4)
In combination with Streptomycin
  MIC of adjuvant in combo: (0.25)
In combination with Tobramycin
  MIC of adjuvant in combo: (0.25)
In combination with Trimethoprim
  MIC of adjuvant in combo: (8)
In combination with Vancomycin
  MIC of adjuvant in combo: (4)
Result in words
  adjuvant activity (potentiation of the panel of 21 antibiotics): did not enhance the activity of any antibiotics

Source: US20210261621A1, “Preparation of Dilipid Polymixins and Use Thereof as Antimicrobial Adjuvants” (priority 2018, published 2021)
